The nature of series [1]: Cytotoxicity (CC50) in H9 cells. It counts as cell-based, human. As to conditions: human.
Protocol: (§1) The anti-HIV activity was determined by the “Guiding Principles of Anti HIV Drug Unclinical Pharmacodynamics” of SFDA which is tested by technology standard assay according to International Universal Standards and Methods. Where in CC50, EC50 were measured twice and took the average.
A short description of series [2]: Cytotoxicity (CC50) in C8166 cells. The series is classed as cell-based. As to conditions: human.
Protocol: as §1
Series [3] concerns HIV-1IIIB. Nature of the series: Anti-HIV activity in C8166 cells. The series is classed as cell-based. To be noted: for TI: CC50/EC50.
Protocol: as §1
Series [4] deals with HIV-1IIIB. Nature of the series: Anti-HIV activity in H9 cells. It counts as cell-based. As to conditions: for TI: CC50/EC50.
Protocol: as §1
Where [5] appears, read: Human immunodeficiency virus 1, HIV-1IIIB, C8166 cells, read-out: EC50.
Where [6] appears, read: Human immunodeficiency virus 1, HIV-1IIIB, H9 cells, read-out: EC50.

The values that follow come from patent US9402819B2, “Anti-HIV compound and preparation method and use thereof” (Sichuan University, priority 2012, dated 2016).

In brackets after ≈: the same amount, converted by molar mass.

As a reminder, the CC50 is the concentration that lowers cell viability or growth by half. With `COc1ccccc1NC(=O)c1cc(C(F)(F)F)ccc1Sc1ccc([N+](=O)[O-])cc1` [Compound 22, N-(2-methoxyphenyl)-2-((4-nitrophenyl)thio)-5-(trifluoromethyl)benzamide], in series [1] (H9 cells, read-out: CC50), the CC50 is > 200 µg/mL.

A word on the EC50: it is the concentration that produces a half-maximal response. For the compound `COc1ccccc1NC(=O)c1cc([N+](=O)[O-])ccc1Sc1ccc([N+](=O)[O-])cc1` [Compound 23, N-(2-methoxyphenyl)-5-nitro-2-(4-nitrophenylthio)benzamide], the CC50 in series [2] was > 200 µg/mL; in series [1] (H9 cells, read-out: CC50), > 200 µg/mL. In addition, the EC50 in series [3] (setting [5]) and in series [4] (setting [6]) was > 200 µg/mL each time.

Consider `COc1ccccc1NC(=O)c1cc(NC(C)=O)ccc1Sc1ccc([N+](=O)[O-])cc1` [Compound 29, 5-acetamido-N-(2-methoxyphenyl)-2-((4-nitrophenyl)thio)benzamide], for which the CC50 is 110 µg/mL (≈ 251 µM) in series [2] and 74.6 µg/mL (≈ 171 µM) in series [1] (H9 cells, read-out: CC50). The figures for the TI in series [3] (C8166 cells) and in series [4] (H9 cells) were 1.49 and <0.37, respectively. In addition, the EC50 in series [3] (setting [5]) is 73.5 µg/mL (≈ 168 µM); in series [4] (setting [6]) it was > 200 µg/mL.

Turning to `Nc1cccc(NC(=O)c2c(N)cccc2Sc2ccc([N+](=O)[O-])cc2)c1` [Compound 49, 2-amino-N-(3-aminophenyl)-6-(4-nitroph-enylthio)benzamide], in series [4] (H9 cells), the TI is recorded as 4.82. For the same compound, the EC50 in series [4] (setting [6]) turned out to be 41.5 µg/mL (≈ 109 µM). The CC50 in series [1] (H9 cells, read-out: CC50) was > 200 µg/mL.

`COc1cc(N)ccc1NC(=O)c1c(N)cccc1Sc1ccc([N+](=O)[O-])cc1` [Compound 50, 2-amino-N-(4-amino-2-methoxyphenyl)-6-(4-nitrophenylthio)benzamide] showed a TI in series [4] (H9 cells) of 2.87. Further, the 50% effective concentration (EC50) in series [4] (setting [6]) came to 28.3 µg/mL (≈ 68.9 µM). Further, the half-maximal cytotoxic concentration (CC50) in series [1] (H9 cells, read-out: CC50) came to 81.1 µg/mL (≈ 197 µM).

In turn, `COc1ccc(NC(=O)c2c(N)cccc2Sc2ccc([N+](=O)[O-])cc2)c(OC)c1` [Compound 51, 2-amino-N-(2,4-dimethoxyphenyl)-6-(4-nitrophenylthio)benzamide] registered a TI in series [4] (H9 cells) of 0.96. For the same compound, the EC50 in series [4] (setting [6]) worked out at 18.8 µg/mL (≈ 44.3 µM). Also, in series [1] (H9 cells, read-out: CC50), the CC50 stood at 18.1 µg/mL (≈ 42.5 µM).

With `COc1ccccc1NC(=O)c1c(Sc2ccc([N+](=O)[O-])cc2)cccc1[N+](=O)[O-]` [Compound 52, N-(2-methoxyphenyl)-2-nitro-6-(4-nitrophenylthio)benzamide], in series [4] (setting [6]), the EC50 is > 200 µg/mL. Also, the CC50 in series [1] (H9 cells, read-out: CC50) was > 200 µg/mL.

In the case of `Nc1ccccc1NC(=O)c1c(Sc2ccc([N+](=O)[O-])cc2)cccc1[N+](=O)[O-]` [Compound 53, N-(2-aminophenyl)-2-nitro-6-(4-nitrophenylthio)benzamide], the TI in series [4] (H9 cells) was >4.58. For the same compound, in series [4] (setting [6]), the concentration for a half-maximal effect (EC50) came to 43.7 µg/mL (≈ 106 µM). In series [1] (H9 cells, read-out: CC50), the CC50 is > 200 µg/mL.

In series [4] (H9 cells), `O=C(O)c1cccc(NC(=O)c2c(Sc3ccc([N+](=O)[O-])cc3)cccc2[N+](=O)[O-])c1` [Compound 54, 3-(2-nitro-6-(4-nitrophenylthio)benzamildo)benzoic acid] displayed a TI of 1.02. For the same compound, the EC50 in series [4] (setting [6]) is 83.9 µg/mL (≈ 191 µM). Half-maximal cytotoxicity in series [1] (CC50) was put at 85.8 µg/mL (≈ 195 µM).

On to `Nc1ccc(NC(=O)c2c(Sc3ccc([N+](=O)[O-])cc3)cccc2[N+](=O)[O-])cc1` [Compound 55, N-(4-aminophenyl)-2-nitro-6-(4-nitrophenylthio)benzamide], for which the cytotoxic concentration (CC50) in series [2] is > 200 µg/mL; in series [1] (H9 cells, read-out: CC50), > 200 µg/mL. Also, the EC50 in series [3] (setting [5]) and in series [4] (setting [6]) was > 200 µg/mL throughout.

Turning to `COc1ccccc1NC(=O)c1c(NS(=O)(=O)c2ccccc2)cccc1Sc1ccc([N+](=O)[O-])cc1` [Compound 56, N-(2-methoxyphenyl)-2-(4-nitrophenylthio)-6-(phenylsulfonamido)benzamide], the CC50 in series [2] is > 200 µg/mL; in series [1] (H9 cells, read-out: CC50), > 200 µg/mL. Also, the TI is listed as >8.17 in series [3] (C8166 cells) and >1.46 in series [4] (H9 cells). The EC50 stood at 24.5 µg/mL (≈ 45.7 µM) in series [3] (setting [5]) and 137 µg/mL (≈ 256 µM) in series [4] (setting [6]).

As for `COc1ccccc1NC(=O)c1c(NS(=O)(=O)c2ccc(C)cc2)cccc1Sc1ccc([N+](=O)[O-])cc1` [Compound 57, N-(2-methoxyphenyl)-2-(4-methylphenylsulfonamido)-6-((4-nitrophenyl)thio)benzamide], the CC50 is 37.2 µg/mL (≈ 67.8 µM) in series [2] and > 200 µg/mL in series [1] (H9 cells, read-out: CC50). Also, the TI is 2.65 in series [3] (C8166 cells) and >11.90 in series [4] (H9 cells). Moreover, the EC50 was found to be 14.1 µg/mL (≈ 25.6 µM) in series [3] (setting [5]) and 16.8 µg/mL (≈ 30.6 µM) in series [4] (setting [6]).

As for `COc1ccccc1NC(=O)c1c(N(C)C)cccc1S(=O)(=O)c1ccc([N+](=O)[O-])cc1` [Compound 58, 2-(dimethylamino)-N-(2-methoxyphenyl)-6-((4-nitrophenyl)sulfonyl)benzamide], the CC50 in series [2] was > 200 µg/mL; in series [1] (H9 cells, read-out: CC50), > 200 µg/mL.

Regarding `CNc1cccc(S(=O)(=O)c2ccc([N+](=O)[O-])cc2)c1C(=O)Nc1ccccc1OC` [Compound 59, N-(2-methoxyphenyl)-2-(methylamino)-6-((4-nitrophenyl)sulfonyl)benzamide], the CC50 in series [2] is > 200 µg/mL.

`COc1ccccc1NC(=O)c1c(NS(=O)(=O)c2ccc(C)cc2)cccc1S(=O)(=O)c1ccc([N+](=O)[O-])cc1` [Compound 60, N-(2-methoxyphenyl)-2-(4-methylphenyls-ulfonamido)-6-((4-nitrophenyl)sulfonyl)benzamide]: the 50% cytotoxic concentration (CC50) in series [2] was > 200 µg/mL; in series [1] (H9 cells, read-out: CC50), > 200 µg/mL. Besides, the TI in series [3] (C8166 cells) is listed as >2.19. In addition, the values for the EC50 in series [3] (setting [5]) and in series [4] (setting [6]) were 91.3 µg/mL (≈ 157 µM) and > 200 µg/mL, respectively.

As to `COc1ccccc1NC(=O)c1c(NS(=O)(=O)c2ccccc2)cccc1S(=O)(=O)c1ccc([N+](=O)[O-])cc1` [Compound 61, N-(2-methoxyphenyl)-2-((4-nitrophenyl)sulfonyl)-6-(phenylsulfonamido)benzamide], the half-maximal cytotoxic concentration (CC50) is > 200 µg/mL in series [2] and > 200 µg/mL in series [1] (H9 cells, read-out: CC50).

`COc1ccccc1NC(=O)c1c(Sc2ccc([N+](=O)[O-])cc2)cccc1N1CCNCC1` [Compound 62, N-(2-methoxyphenyl)-2-((4-nitrophenyl)thio)-6-(piperazinyl)benzamide]: the half-maximal cytotoxic concentration (CC50) was 10.2 µg/mL (≈ 22.1 µM) in series [2] and 14.2 µg/mL (≈ 30.6 µM) in series [1] (H9 cells, read-out: CC50). In addition, the TI in series [3] (C8166 cells) was 2.99; in series [4] (H9 cells), 3.71. For the same compound, the EC50 in series [3] (setting [5]) was 3.43 µg/mL (≈ 7.38 µM); in series [4] (setting [6]), 3.83 µg/mL (≈ 8.24 µM).

Turning to `COc1ccccc1NC(=O)c1c(Sc2ccc([N+](=O)[O-])cc2)cccc1N1CCOCC1` [Compound 63, N-(2-methoxyphenyl)-2-morpholino-6-((4-nitrophenyl)thio)benzamide], the CC50 in series [2] is > 200 µg/mL; in series [1] (H9 cells, read-out: CC50) it was > 200 µg/mL. For the same compound, the TI in series [3] (C8166 cells) is given as >3.75. In addition, the EC50 in series [3] (setting [5]) was 53.3 µg/mL (≈ 115 µM); in series [4] (setting [6]), > 200 µg/mL.

Turning to `COc1ccccc1NC(=O)c1c(NCCBr)cccc1Sc1ccc([N+](=O)[O-])cc1` [Compound 64, 2-((2-bromoethyl)amino)-N-(2-methoxyp-henyl)-6-((4-nitrophenyl)thio)benzamide], the CC50 in series [2] came out at 10.4 µg/mL (≈ 20.7 µM); in series [1] (H9 cells, read-out: CC50), 17.8 µg/mL (≈ 35.5 µM). The TI in series [3] (C8166 cells) came out at 3.28; in series [4] (H9 cells), 0.85. The EC50 worked out at 3.17 µg/mL (≈ 6.31 µM) in series [3] (Human immunodeficiency virus 1, C8166) and 21 µg/mL (≈ 41.8 µM) in series [4] (Human immunodeficiency virus 1, H9).

For `COc1ccccc1NC(=O)c1c(NCP(=O)(OC(C)C)OC(C)C)cccc1Sc1ccc([N+](=O)[O-])cc1` [Compound 65, diisopropyl(((2-((2-methoxyphenyl)carbamoyl)-3-((4-nitro-phenyl)thio)phenyl)amino)methyl)phosphonate], the CC50 in series [2] stood at 18.8 µg/mL (≈ 32.8 µM); in series [1] (H9 cells, read-out: CC50) it was 25.4 µg/mL (≈ 44.3 µM).

Take `Nc1cccc(Sc2ccc([N+](=O)[O-])cc2)c1C(=O)Nc1ccccc1I` [Compound 71, 2-amino-N-(2-iodophenyl)-6-((4-nitrophenyl)thio)benzamide]: the CC50 was > 200 µg/mL in series [2] and > 200 µg/mL in series [1] (H9 cells, read-out: CC50).

In the case of `Nc1cccc(S(=O)(=O)c2ccc([N+](=O)[O-])cc2)c1C(=O)Nc1ccccc1I` [Compound 72, 2-amino-N-(2-iodophenyl)-6-((4-nitrophenyl)sulfonyl)benzamide], the CC50 in series [2] was > 200 µg/mL; in series [1] (H9 cells, read-out: CC50), > 200 µg/mL.

`CS(=O)(=O)Oc1ccccc1NC(=O)c1c(N)cccc1Sc1ccc([N+](=O)[O-])cc1` [Compound 73, 2-(2-amino-6-((4-nitrophenyl)thio)benzamildo)phenyl methanesulfonate]: the 50% cytotoxic concentration (CC50) is 194 µg/mL in series [2] and > 200 µg/mL in series [1] (H9 cells, read-out: CC50). Further, the TI in series [3] (C8166 cells) is on record as 5.28. Moreover, the EC50 was 36.7 µg/mL in series [3] (setting [5]) and > 200 µg/mL in series [4] (setting [6]).

For the compound `COc1ccccc1NC(=O)c1c(N)cccc1Sc1cc(C)cc(C)c1` [Compound 74, 2-amino-6-((3,5-dimethylphenyl)thio)-N-(2-methoxyphenyl)benzamide], the CC50 in series [2] is 68.6 µg/mL (≈ 181 µM); in series [1] (H9 cells, read-out: CC50), > 200 µg/mL. This compound also had a TI in series [3] (C8166 cells) of 9.45. Further, the EC50 in series [3] (setting [5]) is 7.26 µg/mL (≈ 19.2 µM); in series [4] (setting [6]), > 200 µg/mL.

On to `COc1ccccc1NC(=O)c1c(N)cccc1S(=O)(=O)c1cc(C)cc(C)c1` [Compound 75, 2-amino-6-((3,5-dimethylphenyl)sulfonyl)-N-(2-methoxyphenyl)benzamide], for which the CC50 in series [2] was > 200 µg/mL; in series [1] (H9 cells, read-out: CC50), > 200 µg/mL. Besides, the EC50 in series [3] (setting [5]) and in series [4] (setting [6]) was > 200 µg/mL throughout.

Turning to `COc1ccccc1NC(=O)c1c(N)cccc1Sc1ccc(C(=O)O)cc1` [Compound 76, 4-((3-amino-2-((2-methoxyphenyl)carbamoyl)phenyl)thio)benzoic acid], the CC50 in series [2] was > 200 µg/mL; in series [1] (H9 cells, read-out: CC50) it was > 200 µg/mL.

For `COc1ccccc1NC(=O)c1c(N)cccc1S(=O)(=O)c1ccc(C(=O)O)cc1` [Compound 77, 4-((3-amino-2-((2-methoxyphenyl)carbamoyl)phenyl)sulfonyl)benzoic acid], the CC50 is > 200 µg/mL in series [2] and > 200 µg/mL in series [1] (H9 cells, read-out: CC50).

In the case of `COc1ccccc1NC(=O)c1c(NCC(N)=O)cccc1Sc1ccc([N+](=O)[O-])cc1` [Compound 82, 2-((2-amino-2-oxoethyl)amino)-N-(2-methoxyphenyl)-6-((4-nitrophenyl)thio)benzamide], the 50% cytotoxic concentration (CC50) in series [2] was > 200 µg/mL; in series [1] (H9 cells, read-out: CC50) it was > 200 µg/mL.
